{
  "source": "patent US5939100A",
  "about": "“Composition for drug delivery comprising nicotine or a derivative thereof and starch microspheres and method for the manufacturing thereof” (Pharmacia and UpJohn AB, priority 1993, dated 1999)",
  "assay": "Intravenous administration of nicotine in rats (plasma nicotine, pharmacokinetics)",
  "assay_type": "in vivo, rat (male Lewis rats, Lew/Mol)",
  "details": "rat, 0.15 mg/kg BW",
  "excerpt": "The plasma values obtained after i.v. administration of nicotine were just like those obtained by intranasal administration analysed for the number of phases.\nOne phase was recognized corresponding to only one elimination phase.\nThe model was fitted to the data using weighted least squares algoritm with the weighing factor=1.\nThe plasma nicotine values as a function of time after i.v. administration of nicotine are shown in the below Table 3 and FIG. 2. Six animals were used in the study. The pharmacokinetic parameters are calculated as described for the data obtained by intranasal administration.",
  "note": "Read-outs that look alike come from different tables or passages of the source.",
  "data": [
    {"smiles": "CN1CCCC1c1cccnc1", "note": "(stereo not drawn) [nicotine]", "values": [
      {"measurement": "concentration at […]", "setting": "15 minutes after i.v. adm., read-out: Plasma nicotine values, average for 6 rats", "value": 47, "unit": "ng/mL"},
      {"measurement": "concentration at 0.5 h", "setting": "30 minutes after i.v. adm., read-out: Plasma nicotine values, average for 6 rats", "value": 61, "unit": "ng/mL"},
      {"measurement": "concentration at 0.75 h", "setting": "45 minutes after i.v. adm., read-out: Plasma nicotine values, average for 6 rats", "value": 86, "unit": "ng/mL"},
      {"measurement": "concentration at 1 h", "setting": "60 minutes after i.v. adm., read-out: Plasma nicotine values, average for 6 rats", "value": 50, "unit": "ng/mL"},
      {"measurement": "concentration at […]", "setting": "75 minutes after i.v. adm., read-out: Plasma nicotine values, average for 6 rats", "value": 51, "unit": "ng/mL"},
      {"measurement": "concentration at […]", "setting": "90 minutes after i.v. adm., read-out: Plasma nicotine values, average for 6 rats", "value": 38, "unit": "ng/mL"},
      {"measurement": "concentration at 1.75 h", "setting": "105 minutes after i.v. adm., read-out: Plasma nicotine values, average for 6 rats", "value": 38, "unit": "ng/mL"},
      {"measurement": "concentration at 2 h", "setting": "120 minutes after i.v. adm., read-out: Plasma nicotine values, average for 6 rats", "value": 59, "unit": "ng/mL"},
      {"measurement": "concentration at […]", "setting": "150 minutes after i.v. adm., read-out: Plasma nicotine values, average for 6 rats", "value": 36, "unit": "ng/mL"},
      {"measurement": "concentration at 3 h", "setting": "180 minutes after i.v. adm., read-out: Plasma nicotine values, average for 6 rats", "value": 22, "unit": "ng/mL"},
      {"measurement": "concentration at 3.5 h", "setting": "210 minutes after i.v. adm., read-out: Plasma nicotine values, average for 6 rats", "value": 25, "unit": "ng/mL"},
      {"measurement": "concentration at 4 h", "setting": "240 minutes after i.v. adm., read-out: Plasma nicotine values, average for 6 rats", "value": 20, "unit": "ng/mL"},
      {"measurement": "half-life", "setting": "i.v., SIPHAR, read-out: Half-life (Ke line)", "value": 2.6, "unit": "h"},
      {"measurement": "k el", "setting": "i.v., SIPHAR, read-out: Ke, parameter value (converted)", "value": "7.33e-05", "unit": "s⁻¹"},
      {"measurement": "AUC(0-inf)", "setting": "i.v., trapezoidal rule, read-out: AUC0-.infin. (converted)", "value": 262, "unit": "ng·h/mL"}
    ]}
  ]
}
